In PubChem BioAssay AID1996:
Values after ≈ are worked out from the molar mass of the structure shown.

Settings: buffer; pH 7.4; 200.0 µM
`COc1cccc(NC(=O)Nc2ccc3c(c2)OCO3)c1` showed a solubility kinetic of 3.7 µg/mL (≈ 12.9 µM). For `CCCCOP(=O)(c1ccc(N(C)C)cc1)C(O)c1ccc(N(C)C)cc1` (centres undefined), the solubility kinetic was > 58.6 µg/mL. Work on `CC(C(=O)Nc1ccc(S(=O)(=O)N2CCCC2)cc1)N(C)CC(=O)Nc1cccc(F)c1` (centres undefined) yielded a solubility kinetic of 28.7 µg/mL (≈ 62 µM). In the case of `CNC(=S)N(Cc1ccc(Cl)cc1)Cc1cccs1`, the solubility kinetic is reported as 16 µg/mL (≈ 51.5 µM). `COc1ccc(N2CCC(CNC(=O)Nc3ccccc3)C2)cc1` (centres undefined) gave a solubility kinetic of 14.8 µg/mL (≈ 45.5 µM). `CCn1c(SCc2cccc(F)c2)nc2c(c1=O)SCC2` gave a solubility kinetic of 11.2 µg/mL (≈ 34.7 µM). `Nc1nc(CCl)nc(N(c2ccccc2)c2ccccc2)n1` showed a solubility kinetic of 7.5 µg/mL (≈ 24.1 µM). For `NC(CS(=O)O)C(=O)O` (centres undefined), the solubility kinetic was > 23 µg/mL. For `S=C(Nc1ccc(Br)cc1)Nc1ccc2c(c1)OCCO2`, the solubility kinetic was 1.5 µg/mL (≈ 4.11 µM). For `CC1CC(C)CN(S(=O)(=O)c2ccc(C(=O)N(C)Cc3ccccc3)cc2)C1` (centres undefined), the solubility kinetic was 13.7 µg/mL (≈ 34.2 µM). For `Cc1cc(C)c(C#N)c(SCCN2CCOCC2)n1`, the solubility kinetic was > 41.6 µg/mL. Molecule `COCCN(CC(=O)Nc1cccc(C)c1C)C(=O)c1oc2ccccc2c1C` has a solubility kinetic of 7.4 µg/mL (≈ 18.8 µM). In the case of `Cc1ccc(NC(=S)NC(=O)C2CCCCC2)c(Br)c1`, the solubility kinetic is reported as 1.7 µg/mL (≈ 4.78 µM). Molecule `COc1ccc(-c2ocnc2C(=O)Nc2ccc3c(c2)CCC3)cc1` has a solubility kinetic of 1.7 µg/mL (≈ 5.08 µM). With `CC(C)(O)C(=O)NNC(=S)NCc1ccco1` the solubility kinetic was > 38.6 µg/mL. In the case of `S=c1[nH]c2cc3ccccc3cc2[nH]1`, the solubility kinetic is reported as 27.9 µg/mL (≈ 139 µM). `OC(CC#CCN1CCCC1)(c1ccccc1)c1ccccc1` showed a solubility kinetic of 36.7 µg/mL (≈ 120 µM). In the case of `O=[N+]([O-])c1ccc(NC(=S)N2CCCC2)cc1`, the solubility kinetic is reported as 8.2 µg/mL (≈ 32.6 µM). In the case of `O=C(CCN1C(=O)c2ccccc2C1=O)Nc1cccc(O)c1`, the solubility kinetic is reported as > 46.5 µg/mL. In the case of `CCn1c(CNC(=O)c2ccc(F)cc2)cc2ccccc21`, the solubility kinetic is reported as 1.5 µg/mL (≈ 5.06 µM). For `Cc1ccc(CC2SC(N)=NC2=O)cc1` (centres undefined), the solubility kinetic was > 33 µg/mL. For `Cc1csc(NC(=O)c2cncc(Br)c2)n1`, the solubility kinetic was 4.7 µg/mL (≈ 15.8 µM). For `Clc1ccc(Cn2ccc3ccccc32)cn1`, the solubility kinetic was 26.4 µg/mL (≈ 109 µM). In the case of `O=C(CN1CCOCC1)Nc1scc2c1c(=O)oc1ccccc12`, the solubility kinetic is reported as < 0.4 µg/mL. `Fc1ccccc1Nc1nc2ccccc2o1` showed a solubility kinetic of 16.9 µg/mL (≈ 74 µM). `CN(C)c1cccc(N(C)C)c1CNC(=O)C(C)(C)C` gave a solubility kinetic of 39.7 µg/mL (≈ 143 µM). In the case of `CCCCc1nc2cc(C(=O)N3CCC[C@H]3CO)ccc2o1`, the solubility kinetic is reported as > 45.4 µg/mL. For `Cc1cccc(Cc2nnc(CCC(=O)N(C)Cc3ccncc3C)o2)c1`, the solubility kinetic was > 54.7 µg/mL. With `Cc1cc(C)c2c3c(oc2n1)C(=O)N(c1cccc(Cl)c1)CC(=O)N3` the solubility kinetic was 0.7 µg/mL (≈ 1.97 µM). With `COCCCNc1ncnc2c1nc1n2CCCC1` the solubility kinetic was > 39.2 µg/mL. With `c1ccc2c(CN3CCOCC3)c[nH]c2c1` the solubility kinetic was > 32.4 µg/mL. For `COc1ccccc1C1CCN(C(=O)c2ccco2)CC1`, the solubility kinetic was 34 µg/mL (≈ 119 µM). For `CN(C)/C=N/c1ncc(C(=O)c2ccc(Cl)cc2Cl)s1`, the solubility kinetic was 41.6 µg/mL (≈ 127 µM). For `O=C(Cc1cccc(F)c1)Nc1ccc2c(c1)CCC2`, the solubility kinetic was 1.2 µg/mL (≈ 4.46 µM). For `O=C(O)CC(Sc1n[nH]c(=S)s1)C(=O)O` (centres undefined), the solubility kinetic was > 39.9 µg/mL. In the case of `CCc1ccc(N2C(=O)CC(=O)NC2=O)cc1`, the solubility kinetic is reported as > 34.8 µg/mL. In the case of `COC(=O)c1c(NC(C)=O)sc(C(=O)N2CCOCC2)c1C`, the solubility kinetic is reported as > 49 µg/mL. For `CC(NCCC(c1ccccc1)c1ccccc1)c1ccccc1.Cl` (centres undefined), the solubility kinetic was > 52.8 µg/mL. For `Cc1ccc(NC(=O)c2cccs2)cc1NC(=O)c1ccc(F)cc1`, the solubility kinetic was 2 µg/mL (≈ 5.64 µM). With `CC(=O)Nc1ccc(OCC(O)Cn2nc(C)c(C)c2C)cc1` (centres undefined) the solubility kinetic was > 47.6 µg/mL. With `O=C(NNC1CC(=O)N(c2ccccc2)C1=O)c1cccnc1` (centres undefined) the solubility kinetic was > 46.5 µg/mL. In the case of `O=C(Nc1ccc2oc(-c3ccccc3F)nc2c1)c1ccccc1F`, the solubility kinetic is reported as < 0.4 µg/mL. Work on `CCC(CC)NC(=O)CO/N=C/c1ccc(Cl)cc1Cl` yielded a solubility kinetic of 3 µg/mL (≈ 9.46 µM). `O=C(CSc1ncccn1)NC1CCCc2ccccc21` (centres undefined) gave a solubility kinetic of 42.5 µg/mL (≈ 142 µM). For `Cc1cc(C)cc(NC(=O)Oc2ccccc2N2CCCCC2)c1`, the solubility kinetic was 10.1 µg/mL (≈ 31.1 µM). With `Cc1ccccc1-n1ccnc1SCC(=O)Nc1cccc(S(=O)(=O)NC2=NCCC2)c1` the solubility kinetic was > 70.4 µg/mL. `O=C(Nc1ccc([N+](=O)[O-])cc1)N1CCc2ccccc2C1` gave a solubility kinetic of 22 µg/mL (≈ 74 µM). Molecule `Cc1c(C(=O)c2ccc(Br)cc2)c(=O)n(C)c(=O)n1C` has a solubility kinetic of 50.1 µg/mL (≈ 149 µM). In the case of `CCNC1CCS(=O)(=O)C1` (centres undefined), the solubility kinetic is reported as > 24.5 µg/mL.
